Assay results: ChEMBL document CHEMBL3352551, “Synthesis and biological evaluation of novel allosteric enhancers of the A1 adenosine receptor based on 2-amino-3-(4'-chlorobenzoyl)-4-substituted-5-arylethynyl thiophene” (J Med Chem, 2014)
Active and inactive are the calls of the source. The rule behind the calls is not given here.

Experiments:
[1] = biological target: T1, Adenosine receptor A1 (Homo sapiens) (UniProt P30542); assay: Allosteric enhancer activity at human adenosine A1 receptor expressed in CHO cell membranes assessed as shift in CCPA binding Ki level at 10 uM by [3H]DPCPX competition binding assay
T1 sequence (whole entry): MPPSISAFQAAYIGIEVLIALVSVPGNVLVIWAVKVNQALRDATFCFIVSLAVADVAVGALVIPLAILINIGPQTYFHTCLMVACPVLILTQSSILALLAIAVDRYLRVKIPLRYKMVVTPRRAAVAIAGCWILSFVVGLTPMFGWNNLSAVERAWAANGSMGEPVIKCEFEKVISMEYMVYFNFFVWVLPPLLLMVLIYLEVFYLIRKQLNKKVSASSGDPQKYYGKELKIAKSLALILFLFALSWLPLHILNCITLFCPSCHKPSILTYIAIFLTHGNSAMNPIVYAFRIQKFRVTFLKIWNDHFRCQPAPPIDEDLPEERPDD

[2] = biological target: T1, Adenosine receptor A1 (Homo sapiens); assay: Allosteric enhancer activity at human adenosine A1 receptor expressed in CHO cells assessed as inhibition of forskolin-induced cAMP production at 10 uM; assay type: functional, cell-based
[3] = biological target: T1, Adenosine receptor A1 (Homo sapiens); assay: Allosteric enhancer activity at human adenosine A1 receptor expressed in CHO cells assessed as inhibition of forskolin-induced cAMP production at 100 nM in presence of 1 pM CCPA; assay type: functional, cell-based
[4] = biological target: T1, Adenosine receptor A1 (Homo sapiens); assay: Allosteric enhancer activity at human adenosine A1 receptor expressed in CHO cell membranes assessed as shift in [3H]CCPA Bmax level at 10 uM by saturation binding assay
[5] = biological target: Adenosine receptor A2a (Homo sapiens) (UniProt P29274); assay: Displacement of [3H]ZM241385 from human adenosine A2A receptor expressed in CHO cell membranes at 10 uM
[6] = biological target: T1, Adenosine receptor A1 (Homo sapiens); assay: Displacement of [3H]DPCPX from human adenosine A1 receptor expressed in CHO cell membranes at 10 uM
[7] = biological target: T1, Adenosine receptor A1 (Homo sapiens); assay: Allosteric enhancer activity at human adenosine A1 receptor expressed in CHO cell membranes assessed as slowing of [3H]NECA dissociation rate level at 1 uM; assay type: cell-based
[8] = biological target: T1, Adenosine receptor A1 (Homo sapiens); assay: Allosteric enhancer activity at human adenosine A1 receptor expressed in CHO cell membranes assessed as [3H]NECA dissociation rate at 1 uM (reference value: 0.0159 +/- 0.0004 /min); assay type: cell-based
[9] = biological target: T1, Adenosine receptor A1 (Homo sapiens); assay: Allosteric enhancer activity at human adenosine A1 receptor expressed in CHO cell membranes assessed as shift in [3H]CCPA Kd level at 10 uM by saturation binding assay
[10] = biological target: T1, Adenosine receptor A1 (Homo sapiens); assay: Allosteric enhancer activity at human adenosine A1 receptor expressed in CHO cell membranes assessed as [3H]NECA association rate at 1 uM (reference value: 0.0183 +/- 0.0008 /nM/min); assay type: cell-based
[11] = biological target: T2, Adenosine receptor A3 (Homo sapiens) (UniProt P0DMS8); assay: Displacement of [3H]MRE-3008-F20 from human adenosine 3 receptor expressed in CHO cell membranes at 10 uM
T2 sequence (whole entry): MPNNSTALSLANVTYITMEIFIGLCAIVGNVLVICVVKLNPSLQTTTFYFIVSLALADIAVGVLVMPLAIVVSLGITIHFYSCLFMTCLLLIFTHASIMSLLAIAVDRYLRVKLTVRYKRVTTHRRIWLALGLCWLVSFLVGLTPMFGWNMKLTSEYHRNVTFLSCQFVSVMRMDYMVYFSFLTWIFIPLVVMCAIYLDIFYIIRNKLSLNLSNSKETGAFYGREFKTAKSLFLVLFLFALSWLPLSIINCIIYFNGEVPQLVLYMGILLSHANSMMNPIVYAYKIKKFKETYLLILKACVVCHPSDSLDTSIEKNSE

[12] = biological target: T1, Adenosine receptor A1 (Homo sapiens); assay: Allosteric enhancer activity at human adenosine A1 receptor expressed in CHO cell membranes assessed as shift in [3H}NECA binding affinity level at 1 uM
Adenosine receptor A1 = biological target: T3, Adenosine receptor A1 (Rattus norvegicus, UniProt P25099); assay: Displacement of [3H]DPCPX from adenosine A1 receptor in rat membranes; assay type: cell membranes
T3 sequence (P25099 whole entry): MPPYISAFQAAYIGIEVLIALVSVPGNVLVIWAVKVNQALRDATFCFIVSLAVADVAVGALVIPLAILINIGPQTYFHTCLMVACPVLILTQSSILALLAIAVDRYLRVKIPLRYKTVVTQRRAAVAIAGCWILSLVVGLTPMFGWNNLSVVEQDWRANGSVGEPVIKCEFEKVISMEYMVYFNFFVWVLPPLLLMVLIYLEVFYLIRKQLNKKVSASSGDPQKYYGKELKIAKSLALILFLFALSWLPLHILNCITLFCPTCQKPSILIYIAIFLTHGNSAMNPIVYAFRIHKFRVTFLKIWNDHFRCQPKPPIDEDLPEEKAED

Chain of Adenosine receptor A2a (Homo sapiens) (P29274 whole entry): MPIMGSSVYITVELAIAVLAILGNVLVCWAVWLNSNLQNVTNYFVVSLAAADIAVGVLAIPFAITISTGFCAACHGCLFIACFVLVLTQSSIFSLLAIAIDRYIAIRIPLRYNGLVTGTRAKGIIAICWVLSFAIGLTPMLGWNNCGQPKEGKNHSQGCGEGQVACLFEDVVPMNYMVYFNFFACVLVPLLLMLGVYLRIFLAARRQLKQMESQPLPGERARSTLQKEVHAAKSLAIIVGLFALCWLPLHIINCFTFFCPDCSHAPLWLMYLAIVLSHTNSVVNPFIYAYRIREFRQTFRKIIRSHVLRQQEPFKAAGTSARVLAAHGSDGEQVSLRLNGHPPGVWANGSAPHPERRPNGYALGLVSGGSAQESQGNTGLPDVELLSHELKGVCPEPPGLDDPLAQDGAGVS

Row | fold change (FC) [1] | inhibition [2] | inhibition [3] | fold change (FC) [4] | inhibition [5] | inhibition [6] | fold change (FC) [7] | K [8] | Activity [9] | K [10] | inhibition [11] | fold change (FC) [12] | Ki (Adenosine receptor A1) | Compound
1 | 9.9 | 75% | 77% | 9.5 | < 15% | < 15% | 2.1 | 0.0076 min⁻¹ | inactive | 273000 M⁻¹ s⁻¹ | < 15% | 1.9 | – | CC(C)(C)Cc1c(C#Cc2ccccc2)sc(N)c1C(=O)c1ccc(Cl)cc1
2 | 8.2 | 71% | 79% | 7.4 | < 15% | < 15% | – | – | inactive | – | < 15% | – | – | COc1ccc(C#Cc2sc(N)c(C(=O)c3ccc(Cl)cc3)c2CC(C)(C)C)cc1
3 | 4.1 | 66% | 69% | 6.3 | < 15% | < 15% | – | – | inactive | – | < 15% | – | – | CCCCCC#Cc1sc(N)c(C(=O)c2ccc(Cl)cc2)c1CC(C)(C)C
4 | 1.3 | – | – | 1.3 | inactive | inactive | – | 0.0143 min⁻¹ | inactive | 318000 M⁻¹ s⁻¹ | – | 1.2 | 11 µM | Cc1sc(N)c(C(=O)c2cccc(C(F)(F)F)c2)c1C
